# According to PubChem BioAssay (NCI):
# Values joined by “and” are separate entries in the source; they are usually repeats but may differ in a detail not shown here. Identical values can stand only once.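 Assay format: 96-well plates, 48-hour exposure. GI50: concentration for 50% inhibition of growth. The concentration for full growth arrest is given as TGI.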
# How the values were obtained:
# Test in all cases: growth of human tumour cells (NCI), 48 h
# A498 renal = tested on: A498 renal
# A549 NSCLC = tested on: A549 NSCLC
# BT-549 breast = tested on: BT-549 breast
# CAKI-1 renal = tested on: CAKI-1 renal
# COLO 205 colon = tested on: COLO 205 colon
# DLD-1 colon = tested on: DLD-1 colon
# DMS 273 small cell lung = tested on: DMS 273 small cell lung
# DU-145 prostate = tested on: DU-145 prostate
# EKVX NSCLC = tested on: EKVX NSCLC
# HCC-2998 colon = tested on: HCC-2998 colon
# HCT-116 colon = tested on: HCT-116 colon
# HCT-15 colon = tested on: HCT-15 colon
# HOP-18 NSCLC = tested on: HOP-18 NSCLC
# HOP-62 NSCLC = tested on: HOP-62 NSCLC
# HOP-92 NSCLC = tested on: HOP-92 NSCLC
# HS 578T breast = tested on: HS 578T breast
# HT29 colon = tested on: HT29 colon
# IGROV1 ovarian = tested on: IGROV1 ovarian
# K-562 leukemia = tested on: K-562 leukemia
# KM20L2 colon = tested on: KM20L2 colon
# LXFL 529 NSCLC = tested on: LXFL 529 NSCLC
# M19-MEL melanoma = tested on: M19-MEL melanoma
# MDA-MB-435 = tested on: MDA-MB-435
# MOLT-4 leukemia = tested on: MOLT-4 leukemia
# NCI-H226 lung = tested on: NCI-H226 lung
# NCI-H460 lung = tested on: NCI-H460 lung
# NCI-H522 lung = tested on: NCI-H522 lung
# OVCAR-3 ovarian = tested on: OVCAR-3 ovarian
# OVCAR-5 ovarian = tested on: OVCAR-5 ovarian
# PC-3 prostate = tested on: PC-3 prostate
# RPMI-8226 leukemia = tested on: RPMI-8226 leukemia
# RXF 393 renal = tested on: RXF 393 renal
# SF-539 CNS = tested on: SF-539 CNS
# SK-MEL-2 melanoma = tested on: SK-MEL-2 melanoma
# SK-MEL-28 melanoma = tested on: SK-MEL-28 melanoma
# SK-MEL-5 melanoma = tested on: SK-MEL-5 melanoma
# SK-OV-3 ovarian = tested on: SK-OV-3 ovarian
# SN12C renal = tested on: SN12C renal
# SNB-19 CNS = tested on: SNB-19 CNS
# SNB-75 CNS = tested on: SNB-75 CNS
# SNB-78 CNS = tested on: SNB-78 CNS
# SR leukemia = tested on: SR leukemia
# TK-10 renal = tested on: TK-10 renal
# UACC-62 melanoma = tested on: UACC-62 melanoma
# XF 498 CNS = tested on: XF 498 CNS
smiles,measurement,setting,value
O=C1C=CC(=O)c2c(O)c(N3CCN(CCOCCO)CC3)c(Cl)c(O)c21,GI50,A498 renal,2.57 µM [middle of 4 runs]
same,TGI,A498 renal,5.65 µM [middle of 4 runs]
same,GI50,A549 NSCLC,2.39 µM
same,TGI,A549 NSCLC,7.87 µM [middle of 4 runs]
same,GI50,BT-549 breast,0.722 µM and 0.422 µM and 2.27 µM
same,TGI,BT-549 breast,2.11 µM and 1.49 µM and 3.91 µM
same,GI50,CAKI-1 renal,456 nM [middle of 4 runs]
same,GI50,COLO 205 colon,156 nM [middle of 4 runs]
same,TGI,DLD-1 colon,0.401 µM
same,TGI,DMS 273 small cell lung,2.25 µM
same,TGI,DU-145 prostate,3.31 µM [middle of 4 runs]
same,GI50,EKVX NSCLC,1.9 µM [middle of 4 runs]
same,TGI,EKVX NSCLC,4.4 µM [middle of 4 runs]
same,GI50,HCC-2998 colon,2.27 µM
same,GI50,HCT-116 colon,333 nM [middle of 4 runs]
same,TGI,HCT-116 colon,801 nM [middle of 4 runs]
same,TGI,HCT-15 colon,817 nM [middle of 4 runs]
same,TGI,HOP-18 NSCLC,2.73 µM
same,GI50,HOP-62 NSCLC,2.07 µM and 0.983 µM and 2.64 µM
same,TGI,HOP-62 NSCLC,3.84 µM and 3.6 µM and 6.67 µM
same,TGI,HOP-92 NSCLC,0.45 µM and 0.493 µM and 1.12 µM
same,GI50,HS 578T breast,0.218 µM
same,GI50,HT29 colon,0.42 µM and 0.592 µM and 0.288 µM
same,TGI,HT29 colon,1.66 µM and 1.61 µM and 1.07 µM
same,GI50,IGROV1 ovarian,1.64 µM [middle of 4 runs]
same,TGI,IGROV1 ovarian,3.2 µM [middle of 4 runs]
same,GI50,K-562 leukemia,0.265 µM and 0.0439 µM
same,TGI,K-562 leukemia,> 100 µM
same,TGI,KM20L2 colon,2.07 µM
same,TGI,LXFL 529 NSCLC,0.45 µM
same,TGI,M19-MEL melanoma,1.08 µM
same,GI50,MDA-MB-435,0.197 µM
same,TGI,MDA-MB-435,0.907 µM and 0.486 µM
same,GI50,MOLT-4 leukemia,0.097 µM and 0.0331 µM
same,TGI,MOLT-4 leukemia,0.837 µM and 0.175 µM
same,GI50,NCI-H226 lung,2.69 µM
same,TGI,NCI-H226 lung,4.68 µM [middle of 4 runs]
same,GI50,NCI-H460 lung,1.57 µM
same,GI50,NCI-H522 lung,0.313 µM
same,TGI,NCI-H522 lung,1.19 µM and 0.352 µM
same,TGI,OVCAR-3 ovarian,2.14 µM [middle of 4 runs]
same,GI50,OVCAR-5 ovarian,1.26 µM
same,TGI,OVCAR-5 ovarian,3.32 µM [middle of 4 runs]
same,GI50,PC-3 prostate,1.67 µM [middle of 4 runs]
same,TGI,PC-3 prostate,3.23 µM [middle of 4 runs]
same,GI50,RPMI-8226 leukemia,277 nM [middle of 4 runs]
same,TGI,RPMI-8226 leukemia,1.01 µM [middle of 4 runs]
same,GI50,RXF 393 renal,0.192 µM and 0.344 µM and 1.35 µM
same,TGI,RXF 393 renal,0.422 µM and 1.1 µM and 2.96 µM
same,TGI,SF-539 CNS,3.31 µM [middle of 4 runs]
same,GI50,SK-MEL-2 melanoma,2.3 µM
same,TGI,SK-MEL-2 melanoma,4.51 µM and 1.11 µM
same,TGI,SK-MEL-28 melanoma,2.89 µM [middle of 4 runs]
same,GI50,SK-MEL-5 melanoma,688 nM [middle of 4 runs]
same,TGI,SK-MEL-5 melanoma,1.81 µM [middle of 4 runs]
same,GI50,SK-OV-3 ovarian,4.59 µM [middle of 4 runs]
same,TGI,SK-OV-3 ovarian,13.5 µM and 7.9 µM and 19.9 µM
same,TGI,SN12C renal,2.07 µM [middle of 4 runs]
same,GI50,SNB-19 CNS,13.4 µM [middle of 4 runs]
same,TGI,SNB-19 CNS,26.5 µM and 18.4 µM and 26.1 µM
same,TGI,SNB-75 CNS,3.16 µM [middle of 4 runs]
same,TGI,SNB-78 CNS,1.35 µM
same,GI50,SR leukemia,0.104 µM and 0.0382 µM and 0.0771 µM
same,TGI,SR leukemia,0.43 µM and 0.614 µM and 0.321 µM
same,TGI,TK-10 renal,1.56 µM [middle of 4 runs]
same,TGI,UACC-62 melanoma,3.01 µM [middle of 4 runs]
same,TGI,XF 498 CNS,1.88 µM
